Data on three molecules can be found in US20180168160A1, “MICROBICIDAL COMPOSITION” (Rohm and Haas Company, priority 2015, published 2018).

Molecules are shown by their SMILES. Where two headings read alike, the source gives them in different places.

The subject of assay [1] is consortium of selected bacterial species, Escherichia coli (ATCC #25922), Pseudomonas aeruginosa (ATCC #9027, Staphylococcus aureus (ATCC #6538) and Klebsiella …). The experiment in a line: Synergy test, high resolution MIC microtiter plate assay against a bacterial consortium. It counts as cell-based. The following applies: M9GY medium, 35° C., 24 hrs, visual turbidity, active ingredient basis. The text has this: (§1) One measure of synergism is the industrially accepted method described by Kull, F. C.; Eisman, P. C.; Sylwestrowicz, H. D. and Mayer, R. L., in Applied Microbiology 9:538-541 (1961), using the ratio determined by the formula: Qa/QA+Qb/QB=Synergy Index (“SI”) wherein: QA=concentration of compound A (first component) in ppm, acting alone, which produced an end point (MIC of Compound A). QA=concentration of compound A in ppm, in the mixture, which produced an end point. QB=concentration of compound B (second component) in ppm, acting alone, which produced an end point (MIC of Compound B). Qb=concentration of compound B in ppm, in the mixture, which produced an end point.
(§2) When the sum of Qa/QA and Qb/QB is greater than one, antagonism is indicated. […] The lower the SI, the greater the synergy shown by that particular mixture. The minimum inhibitory concentration (MIC) of a microbicide is the lowest concentration tested under a specific set of conditions that prevents the growth of added microorganisms.
(§3) Synergy tests were conducted using standard microtiter plate assays with media designed for optimal growth of the test microorganism. Minimal salt medium supplemented with 0.2% glucose and 0.1% yeast extract (M9GY medium) was used for testing bacteria. In this method, a wide range of combinations of microbicides was tested by conducting high resolution MIC assays in the presence of various concentrations of DMDMH and Dazomet or THNM and Dazomet. High resolution MICs were determined by adding varying amounts of microbicide to one column of a microtiter plate and doing subsequent […] dilutions using an automated liquid handling system to obtain a series of endpoints ranging from 2 ppm to 1,000 ppm active ingredient.
(§4) The synergy of the combinations of the present invention was determined against a consortium of selected bacterial species, Escherichia coli (ATCC #25922), Pseudomonas aeruginosa (ATCC #9027, Staphylococcus aureus (ATCC #6538) and Klebsiella pneumoniae (ATCC #13883). The consortium was prepared using approximately 1×10^6 CFU per mL of each species. These microorganisms are representative of natural contaminants in many industrial applications. The plates were visually evaluated for microbial growth (turbidity) to determine the MIC after selected incubation times at 35° C. after 24 hrs.
(§5) In each test, Second Component (B) was Dazomet and the First Component (A) was DMDMH.

Assay in assay [2]: as above
The assay is classed as cell-based. The settings on record: M9GY medium, 35° C., 24 hrs, visual turbidity, active ingredient basis.
Source text: as §1, §2, §3, §4, §5

For the molecule `CC1(C)C(=O)N(CO)C(=O)N1CO` [DMDMH, dimethylol-dimethylhydantoin], the “MIC of DMDMH alone (QA)” value in assay [1] (Table 1) stood at 200 µg/mL.

Take `CN1CSC(=S)N(C)C1` [Dazomet, 3,5-dimethyl-1,3,5-thiadiazinane-2-thione]: in assay [1] (Table 2), the “MIC of Dazomet alone (QB)” value amounted to 100 µg/mL. For the same molecule, the MIC – broadly, the least concentration at which growth counts as inhibited – in assay [2] (Table 1, read-out: MIC of Dazomet alone (QB)) came to 100 µg/mL.

As for `O=[N+]([O-])C(CO)(CO)CO` [THNM, tris(hydroxymethyl)nitromethane], the minimal inhibitory concentration (MIC) in assay [2] (Table 2, read-out: MIC of THNM alone (QA)) was determined as 400 µg/mL.
